In PubChem BioAssay (NCI):
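How tested: cells in 96-well plates exposed to compound for 48 hours at five concentrations. Abbreviation: GI50, concentration required for 50% inhibition of growth. TGI: total growth inhibition.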

Assays:
Assay in all cases: NCI-60 cell line screen, 48 h
786-0 renal = tested on: 786-0 renal
A498 renal = tested on: A498 renal
A549 NSCLC = tested on: A549 NSCLC
ACHN renal = tested on: ACHN renal
BT-549 breast = tested on: BT-549 breast
CCRF-CEM leukemia = tested on: CCRF-CEM leukemia
COLO 205 colon = tested on: COLO 205 colon
DU-145 prostate = tested on: DU-145 prostate
EKVX NSCLC = tested on: EKVX NSCLC
HCC-2998 colon = tested on: HCC-2998 colon
HCT-116 colon = tested on: HCT-116 colon
HCT-15 colon = tested on: HCT-15 colon
HL-60(TB) leukemia = tested on: HL-60(TB) leukemia
HOP-62 NSCLC = tested on: HOP-62 NSCLC
HOP-92 NSCLC = tested on: HOP-92 NSCLC
HS 578T breast = tested on: HS 578T breast
HT29 colon = tested on: HT29 colon
IGROV1 ovarian = tested on: IGROV1 ovarian
KM12 colon = tested on: KM12 colon
LOX IMVI melanoma = tested on: LOX IMVI melanoma
M14 melanoma = tested on: M14 melanoma
MALME-3M melanoma = tested on: MALME-3M melanoma
MCF7 breast = tested on: MCF7 breast
MDA-MB-231 breast = tested on: MDA-MB-231 breast
MDA-MB-435 = tested on: MDA-MB-435
MOLT-4 leukemia = tested on: MOLT-4 leukemia
NCI-H226 lung = tested on: NCI-H226 lung
NCI-H23 lung = tested on: NCI-H23 lung
NCI-H460 lung = tested on: NCI-H460 lung
NCI-H522 lung = tested on: NCI-H522 lung
NCI/ADR-RES ovarian = tested on: NCI/ADR-RES ovarian
OVCAR-3 ovarian = tested on: OVCAR-3 ovarian
OVCAR-4 ovarian = tested on: OVCAR-4 ovarian
OVCAR-5 ovarian = tested on: OVCAR-5 ovarian
OVCAR-8 ovarian = tested on: OVCAR-8 ovarian
PC-3 prostate = tested on: PC-3 prostate
RPMI-8226 leukemia = tested on: RPMI-8226 leukemia
RXF 393 renal = tested on: RXF 393 renal
SF-268 CNS = tested on: SF-268 CNS
SF-295 CNS = tested on: SF-295 CNS
SF-539 CNS = tested on: SF-539 CNS
SK-MEL-2 melanoma = tested on: SK-MEL-2 melanoma
SK-MEL-28 melanoma = tested on: SK-MEL-28 melanoma
SK-MEL-5 melanoma = tested on: SK-MEL-5 melanoma
SK-OV-3 ovarian = tested on: SK-OV-3 ovarian
SN12C renal = tested on: SN12C renal
SNB-19 CNS = tested on: SNB-19 CNS
SNB-75 CNS = tested on: SNB-75 CNS
SR leukemia = tested on: SR leukemia
SW-620 colon = tested on: SW-620 colon
T-47D breast = tested on: T-47D breast
TK-10 renal = tested on: TK-10 renal
U251 CNS = tested on: U251 CNS
UACC-257 melanoma = tested on: UACC-257 melanoma
UACC-62 melanoma = tested on: UACC-62 melanoma
UO-31 renal = tested on: UO-31 renal

COc1ccc(C(=O)/C=C/c2ccc(OCc3ccc(Cl)cc3)cc2)cc1OC
GI50 (786-0 renal): 71.2 µM | TGI (786-0 renal): 470 µM | GI50 (A498 renal): 141 µM | TGI (A498 renal): 604 µM | GI50 (A549 NSCLC): 77.1 µM | TGI (A549 NSCLC): > 1000 µM | GI50 (ACHN renal): 57.9 µM | TGI (ACHN renal): > 1000 µM | GI50 (BT-549 breast): 81.8 µM | TGI (BT-549 breast): 586 µM | GI50 (CCRF-CEM leukemia): 190 µM | TGI (CCRF-CEM leukemia): > 1000 µM | GI50 (COLO 205 colon): 253 µM | TGI (COLO 205 colon): > 1000 µM | GI50 (DU-145 prostate): 202 µM | TGI (DU-145 prostate): > 1000 µM | GI50 (EKVX NSCLC): 66.4 µM | TGI (EKVX NSCLC): > 1000 µM | GI50 (HCC-2998 colon): 960 µM | TGI (HCC-2998 colon): > 1000 µM | GI50 (HCT-116 colon): 40.8 µM | TGI (HCT-116 colon): > 1000 µM | GI50 (HCT-15 colon): 112 µM | TGI (HCT-15 colon): > 1000 µM | GI50 (HL-60(TB) leukemia): 65 µM | TGI (HL-60(TB) leukemia): 296 µM | GI50 (HOP-62 NSCLC): 110 µM | TGI (HOP-62 NSCLC): 419 µM | GI50 (HOP-92 NSCLC): 44.5 µM | TGI (HOP-92 NSCLC): 365 µM | GI50 (HS 578T breast): 108 µM | TGI (HS 578T breast): > 1000 µM | GI50 (HT29 colon): 163 µM | TGI (HT29 colon): > 1000 µM | GI50 (IGROV1 ovarian): 118 µM | TGI (IGROV1 ovarian): > 1000 µM | GI50 (KM12 colon): 171 µM | TGI (KM12 colon): > 1000 µM | GI50 (LOX IMVI melanoma): 91.3 µM | TGI (LOX IMVI melanoma): > 1000 µM | GI50 (M14 melanoma): 150 µM | TGI (M14 melanoma): > 1000 µM | GI50 (MALME-3M melanoma): 176 µM | TGI (MALME-3M melanoma): 639 µM | GI50 (MCF7 breast): 47.4 µM | TGI (MCF7 breast): > 1000 µM | GI50 (MDA-MB-231 breast): 94.6 µM | TGI (MDA-MB-231 breast): > 1000 µM | GI50 (MDA-MB-435): 150 µM | TGI (MDA-MB-435): > 1000 µM | GI50 (MOLT-4 leukemia): 276 µM | TGI (MOLT-4 leukemia): > 1000 µM | GI50 (NCI-H226 lung): 63.1 µM | TGI (NCI-H226 lung): 635 µM | GI50 (NCI-H23 lung): 172 µM | TGI (NCI-H23 lung): > 1000 µM | GI50 (NCI-H460 lung): 68.6 µM | TGI (NCI-H460 lung): > 1000 µM | GI50 (NCI-H522 lung): 88.4 µM | TGI (NCI-H522 lung): 351 µM | GI50 (NCI/ADR-RES ovarian): 109 µM | TGI (NCI/ADR-RES ovarian): > 1000 µM | GI50 (OVCAR-3 ovarian): 55.6 µM | TGI (OVCAR-3 ovarian): 230 µM | GI50 (OVCAR-4 ovarian): 44.2 µM | TGI (OVCAR-4 ovarian): 372 µM | GI50 (OVCAR-5 ovarian): 499 µM | TGI (OVCAR-5 ovarian): > 1000 µM | GI50 (OVCAR-8 ovarian): 54.8 µM | TGI (OVCAR-8 ovarian): 633 µM | GI50 (PC-3 prostate): 57.6 µM | TGI (PC-3 prostate): 435 µM | GI50 (RPMI-8226 leukemia): 98.4 µM | TGI (RPMI-8226 leukemia): 773 µM | GI50 (RXF 393 renal): 90.6 µM | TGI (RXF 393 renal): 502 µM | GI50 (SF-268 CNS): 159 µM | TGI (SF-268 CNS): > 1000 µM | GI50 (SF-295 CNS): 189 µM | TGI (SF-295 CNS): > 1000 µM | GI50 (SF-539 CNS): 159 µM | TGI (SF-539 CNS): > 1000 µM | GI50 (SK-MEL-2 melanoma): 252 µM | TGI (SK-MEL-2 melanoma): > 1000 µM | GI50 (SK-MEL-28 melanoma): 366 µM | TGI (SK-MEL-28 melanoma): > 1000 µM | GI50 (SK-MEL-5 melanoma): 64.3 µM | TGI (SK-MEL-5 melanoma): 264 µM | GI50 (SK-OV-3 ovarian): 142 µM | TGI (SK-OV-3 ovarian): 607 µM | GI50 (SN12C renal): 221 µM | TGI (SN12C renal): > 1000 µM | GI50 (SNB-19 CNS): 42.7 µM | TGI (SNB-19 CNS): 206 µM | GI50 (SNB-75 CNS): 111 µM | TGI (SNB-75 CNS): 484 µM | GI50 (SR leukemia): 148 µM | TGI (SR leukemia): > 1000 µM | GI50 (SW-620 colon): 196 µM | TGI (SW-620 colon): > 1000 µM | GI50 (T-47D breast): 71.9 µM | TGI (T-47D breast): > 1000 µM | GI50 (TK-10 renal): 396 µM | TGI (TK-10 renal): > 1000 µM | GI50 (U251 CNS): 58.8 µM | TGI (U251 CNS): 314 µM | GI50 (UACC-257 melanoma): 244 µM | TGI (UACC-257 melanoma): > 1000 µM | GI50 (UACC-62 melanoma): 76.8 µM | TGI (UACC-62 melanoma): 376 µM | GI50 (UO-31 renal): 190 µM | TGI (UO-31 renal): > 1000 µM
